Reference: US12435044B2, “Pyridazinone herbicides and pyridazinone intermediates used to prepare a herbicide” (FMC Corporation, priority 2018, dated 2025)

Tests used:
Type in all cases: in vivo
[1] = test system: common ragweed (AMBEL; Ambrosia artemisiifolia); experiment: Test G preemergence, mixtures of Cpd. No. 20 with (b15C1)
From the text: (§1) This test evaluated the effect of mixtures of Cpd. No. 20 with (b15C1) on several plant species. Seeds of plant species selected from corn (ZEAMD; Zea mays, cv. ‘Pioneer 1184’), soybean (GLXMA; Glycine max, cv. Pioneer 35T58), giant foxtail (SETFA; Setaria faberi), barnyardgrass (ECHCG; Echinochloa crus-galli), large crabgrass (DIGSA; Digitaria sanguinalis), palmer amaranth (AMAPA; Amaranthus palmeri), common waterhemp (AMATU; Amaranthus rudis), and common ragweed (AMBEL; Ambrosia artemisiifolia) were planted in pots containing Tama Silt Loam soil and treated preemergence with a directed soil spray using test chemicals formulated in a non-phytotoxic solvent mixture which included a surfactant.
(§2) Treated plants and untreated controls were maintained in a greenhouse for approximately 21 d, after which time all treated plants were compared to untreated controls and visually evaluated for injury. Plant response ratings, summarized in Table G, are based on a 0 to 100 scale where 0 is no effect and 100 is complete control. A dash (-) response means no test result. Test results are presented as a mean of 4 reps.

[2] = test system: barnyardgrass (ECHCG; Echinochloa crus-galli); experiment: as above
From the text: as §1, §2

[3] = test system: common waterhemp (AMATU; Amaranthus rudis); experiment: as above
From the text: as §1, §2

[4] = test system: horseweed (Conyza canadensis); experiment: Test C postemergence greenhouse test; details: scale 0 to 100
Summary of the method: (§3)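 Visual 0–100 rating (0 = no effect, 100 = complete control) against controls, 13 to 21 d after treatment in greenhouse. Preemergence: seeds in silt loam soil. Postemergence: plants at 1- to 4-leaf stage (2 to 18 cm) in peat-based medium; compounds in surfactant-containing solvent mixture.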

[5] = test system: nightshade (eastern black nightshade, Solanum ptycanthum); experiment: Test C postemergence greenhouse test; details: scale 0 to 100
Summary of the method: as §3

**Q.** With `Cc1ccc2ccc(C)c(-c3c(O)c(Cl)nn(C)c3=O)c2c1` [Cpd. No. 20, 6-chloro-4-(2,7-dimethyl-1-naphthalenyl)-5-hydroxy-2-methyl-3(2H)-pyridazinone] as the compound, how does the “Plant response rating (0 to 100 scale)” value ([1]; Cpd. No. 20 16 g a.i./ha alone) read?
**A.** 48

**Q.** And the “Plant response rating (0 to 100 scale)” value ([1]; Cpd. No. 20 31 g a.i./ha alone)?
**A.** 73

**Q.** What about the “Plant response rating (0 to 100 scale)” value ([1]; Cpd. No. 20 62 g a.i./ha alone) of the same compound?
**A.** 74

**Q.** And the “Plant response rating (0 to 100 scale)” value ([2]; Cpd. No. 20 16 g a.i./ha alone)?
**A.** 21

**Q.** What about the “Plant response rating (0 to 100 scale)” value ([2]; Cpd. No. 20 31 g a.i./ha alone) of the same compound?
**A.** 51

**Q.** And the “Plant response rating (0 to 100 scale)” value ([2]; Cpd. No. 20 62 g a.i./ha alone)?
**A.** 70

**Q.** What about the “Plant response rating (0 to 100 scale)” value ([3]; Cpd. No. 20 16 g a.i./ha alone) of the same compound?
**A.** 55

**Q.** What about the “Plant response rating (0 to 100 scale)” value ([3]; Cpd. No. 20 31 g a.i./ha alone) of the same compound?
**A.** 96

**Q.** And the “Plant response rating (0 to 100 scale)” value ([3]; Cpd. No. 20 62 g a.i./ha alone)?
**A.** 99

**Q.** Which “Plant response rating, Horseweed” value ([4]; 16 g ai/ha) does the source give for `Cc1ccc2ccc(F)cc2c1-c1c(O)c(Cl)nn(C)c1=O` [Cpd. No. 21] here?
**A.** 80

**Q.** What about the “Plant response rating, Horseweed” value ([4]; 31 g ai/ha) of the same compound?
**A.** 85

**Q.** What about the “Plant response rating, Horseweed” value ([4]; 62 g ai/ha) of the same compound?
**A.** 90

**Q.** What about the “Plant response rating, Horseweed” value ([4]; 125 g ai/ha) of the same compound?
**A.** 90

**Q.** How did the “Plant response rating, Nightshade” value ([5]; 16 g ai/ha) turn out when `Cc1cc(Cl)c2ccccc2c1-c1c(O)c(Cl)nn(C)c1=O` [Cpd. No. 65] was run?
**A.** 90

**Q.** What about the “Plant response rating, Nightshade” value ([5]; 31 g ai/ha) of the same compound?
**A.** 100

**Q.** What about the “Plant response rating, Nightshade” value ([5]; 62 g ai/ha) of the same compound?
**A.** 100

**Q.** What about the “Plant response rating, Nightshade” value ([5]; 125 g ai/ha) of the same compound?
**A.** 100
